Measured values as given in patent US8748618B2, “Inhibitors of inv(16) leukemia” (University of Virginia Patent Foundation, priority 2009, dated 2014).
Each block holds one compound with its values, some of them ahead of it.

Columns and labels:
[1] = test system: NCI 60 cell lines; settings: for 79% of the cell lines; cited from earlier work
[2] = ip injection; NCI Developmental Therapeutics website; cited from earlier work
[3] = target: CBFβ (Homo sapiens (Human), UniProt Q13951); test: NMR chemical shift perturbation with CBFβ; type: binding; settings: for NMR with CBFβ + 250 uM compound, CSP G 112: residue G 112; for NMR with CBFβ + 250 uM compound, CSP K 98: residue K 98
Chain of CBFβ (Q13951 1-141, species assumed): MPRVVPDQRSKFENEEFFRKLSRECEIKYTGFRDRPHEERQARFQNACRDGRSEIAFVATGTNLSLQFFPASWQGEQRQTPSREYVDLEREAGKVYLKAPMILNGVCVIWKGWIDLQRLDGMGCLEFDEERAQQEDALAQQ
From the text: Validation of binding of a small molecule inhibitor to its protein target is an essential step in developing potent inhibitors. This can be readily achieved using either NMR spectroscopy or X-ray crystallography. In the case of X-ray crystallography, this is achieved by co-crystallization of the protein with the ligand and determination of the structure. In the case of NMR spectroscopy, the structure of a compound-protein complex can also be determined. In addition, chemical shift perturbations of the protein NMR spectrum (typically 2D ^15N—^1H HSQC or ^13C—^1H HSQC) in the presence of compounds can both confirm binding to the target and localize the binding site on a protein (Pellecchia, Sem et al. 2002; Salvatella and Giralt 2003). The latter method is a quick and efficient method to confirm binding to the protein and to determine the binding site when appropriate labeled samples are available and the resonance assignments are known. Such data can also be used to dock the small molecule to the protein. Because the structure of CBFβ has been solved by NMR (Huang, Peng et al. 1999), resonance assignments are available and we have employed this approach as an additional screen to ensure the validity of the inhibitors we are developing and to determine the binding site (see below).

[4] = target: CBFβ-SMMHC:RD (CBFβ-SMMHC binding to the Runt domain); test: FRET assay, inhibition of CBFβ-SMMHC binding to the Runt domain; settings: for IC50 FRET (CBFβ-SMMHC:RD, 20 nM both): Table 1 monomers, 20 nM both proteins
Protocol: FRET assay. […] We fused the green fluorescent protein derivative Cerulean to the N-terminus of the Runt domain and the green fluorescent protein derivative Venus to the N-terminus of CBFβ-SMMHC (as well as to CBFβ (Gorczynski, Grembecka et al. 2007)). The ratio of the emission intensities at 525 nm and 474 nm, measured after excitation at 433 nm, was used as the readout in this assay. The dynamic range for the FRET assay was determined by adding a 30-fold excess of untagged CBFβ-SMMHC (or CBFβ in the case of CBFβ—Runt domain binding) to the assay and the associated change in the FRET ratio was defined as 100% inhibition.
As shown by Shoichet and co-workers (Seidler, McGovern et al. 2003), a primary source of false positives in any screen is micelle formation. […] A substantial loss of activity in the presence of detergent is a hallmark of inhibition by micelle formation and such compounds are thus identified as false positives. In addition, we are also incubating compound with protein and checking by mass spectroscopy to ensure that positive hits are not acting by covalent addition to either of the proteins.

[5] = test system: human bone marrow mononuclear cells (BM MNCs); test: MTT assay on human bone marrow mononuclear cells; type: cell-based; settings: 48 hour treatment, up to 10 μM
Protocol: (§1) We have tested AI-4-83 on human bone marrow mononuclear cells (for toxicity) and on one inv(16) patient sample using an MTT assay after a 48 hour compound treatment.

[6] = test system: RS4; 11 cells; test: MTT assay, growth of RS4;11 cells; type: cell-based; settings: 10 μM, FIG. 8
From the text: (§2) We have tested several of the compounds we have synthesized for their effects on ME-1 cells, a leukemia cell line harboring the inv(16) (Yanagisawa, Horiuchi et al. 1991). […] AI-4-57 has also been tested against the Kasumi-1, Jurkat, and RS4; 11 leukemia cell lines (FIG. 4.B). […] We have also examined effects on apoptosis using flow cytometry to measure Annexin V/PI (propidium iodide) positivity. […] The selectivity for specific cell lines and the correlation of activity in the FRET assay with effects on inv(16) cells all support the hypothesis that the compounds are hitting the desired target.
(§3) Below are two exemplary dimeric compound formulas, shown here without the possible substituents indicated elsewhere herein.

[7] = test system: Jurkat cells; test: MTT assay, growth of Jurkat cells; type: cell-based; settings: 10 μM, FIG. 8
From the text: as §2, §3

[8] = test system: inv(16) patient sample cells; test: MTT assay on inv(16) patient sample; type: cell-based, human; settings: 48 hour treatment, 10 μM
Protocol: as §1

[9] = test system: inv(16) repression (CBFβ-SMMHC) at RUNX binding site reporter; test: Luciferase reporter assay of inv(16) repression; type: cell-based; settings: FIG. 10
From the text: A luciferase reporter assay has been developed to test the effects of inhibitors on inv(16) repression. Expression of luciferase is driven by multiple copies of a RUNX binding site using endogenous RUNX and CBFβ. CBFβ-SMMHC is expressed in these cells, resulting in repression of luciferase expression.

[10] = test system: CDKN1a gene expression; test: CDKN1a gene expression by RT-PCR in ME-1 cells; type: cell-based, human; settings: 10, 5 and 2.5 μM, FIG. 9
From the text: The effects of the dimeric inhibitor AI-4-83 on CDKN1a gene expression were examined using RT-PCR. […] In addition, the effect of AI-4-83 is much more substantial than that for the monomeric compound, supporting the increased efficacy of the dimeric versus monomeric compounds.

[11] = test system: ME-1 cells; test: MTT viability assay, growth of ME-1 cells; type: cell-based, human
From the text: as §2
The dimer with a 7 atom linker (AI-4-62) has been tested for effects on the growth of the ME-1 cell line (see FIG. 7), a leukemia cell line with the inv(16).

[12] = test system: Kasumi-1 cells; test: MTT assay, growth of Kasumi-1 cells; type: cell-based; settings: 10 μM, FIG. 8
From the text: as §2, §3

[13] = test system: normal bone marrow mononuclear cells; test: Effect on normal bone marrow mononuclear cells (control of the leukemia initiating cell test); type: cell-based
From the text: (§4) Dr. Lucio Castilla's lab has identified a specific population of cells referred to as leukemia initiating cells using mouse models of inv(16) leukemia (Kuo, Y. H., et al., Cbf beta-SMMHC induces distinct abnormal myeloid progenitors able to develop acute myeloid leukemia. Cancer Cell, 2006. 9(1): p. 57-68). […] Upon acquisition of such secondary mutations, these cells can progress to overt leukemia. These cells are also typically more resistant to traditional cytotoxic chemotherapy and therefore represent a pool of cells from which relapse can occur. We have tested AI-4-83 against this pool of cells and shown that the compound is very effective at inducing apoptosis in this population.

[14] = test system: inv(16) leukemia initiating cells; test: Apoptosis of inv(16) leukemia initiating cells from a mouse model; type: cell-based; settings: 3 day treatment, 2 μM, FIG. 12
From the text: as §4

IC50 FRET (CBFβ-SMMHC:RD, 20 nM both) [4]: Interference with assay | NMR with CBFβ + 250 uM compound, CSP G 112 [3]: 0.032 ppm | NMR with CBFβ + 250 uM compound, CSP K 98 [3]: 0.016 ppm
Compound: c1ccc(-c2nc3cc(N4CCCCC4)ccc3[nH]2)nc1 [AI-10-82]

NMR with CBFβ + 250 uM compound, CSP G 112/K 98 (in words) [3]: No CSP
Compound: c1ccc(-c2nc3cc(N4CCOCC4)ccc3[nH]2)nc1 [AI-10-3]

NMR with CBFβ + 250 uM compound, CSP G 112/K 98 (in words) [3]: No CSP | Precipitation in the NMR sample ([3]; 250 uM compound with CBFβ): some precipitation
Compound: FC(F)(F)Oc1ccc2[nH]c(-c3ccccn3)nc2c1 [AI-10-47]

Δ500 [4]: Δ500 = 61%
Compound: NC(=O)c1ccc2[nH]c(-c3ccccn3)nc2c1 [AI-10-70]

NMR with CBFβ + 250 uM compound, CSP G 112/K 98 (in words) [3]: No CSP
Compound: O=C(O)c1ccc2[nH]c(-c3ccccn3)nc2c1 [AI-10-57]

NMR with CBFβ + 250 uM compound, CSP G 112/K 98 (in words) [3]: No CSP
Compound: Oc1ccc2[nH]c(-c3ccccn3)nc2c1 [AI-10-61]

IC50 FRET (CBFβ-SMMHC:RD, 20 nM both) [4]: Interference with assay
Compound: FC(F)(F)c1cccc2[nH]c(-c3ccccn3)nc12 [AI-4-47]

NMR with CBFβ + 250 uM compound, CSP G 112/K 98 (in words) [3]: No CSP
Compound: CC(C)Oc1ccc2[nH]c(-c3ccccn3)nc2c1 [AI-4-70]

Continued, compound first:

Compound: COc1ccc2[nH]c(-c3ccccn3)nc2c1 [NCI-320656, reference compound]
GI50 [1]: ≥ 100 µM | Tolerated by mice [2]: up to 200 mg/kg/day | NMR with CBFβ + 250 uM compound, CSP G 112 [3]: 0.039 ppm | NMR with CBFβ + 250 uM compound, CSP K 98 [3]: 0.026 ppm

Compound: COc1ccc(-c2nc3cc(N4CCCC4)ccc3[nH]2)nc1 [AI-10-101]
IC50 FRET (CBFβ-SMMHC:RD, 20 nM both) [4]: Interference with assay

Compound: COc1ccnc(-c2nc3cc(OC)ccc3[nH]2)c1 [LD-2-101]
NMR with CBFβ + 250 uM compound, CSP G 112/K 98 (in words) [3]: No CSP

Compound: COc1c(F)cc2[nH]c(-c3ccccn3)nc2c1F [LD-1-39]
NMR with CBFβ + 250 uM compound, CSP G 112/K 98 (in words) [3]: No CSP

Compound: COc1ccc(-c2nc3cc(OC)ccc3[nH]2)nc1 [AI-4-61]
NMR with CBFβ + 250 uM compound, CSP G 112 [3]: 0.015 ppm | NMR with CBFβ + 250 uM compound, CSP K 98 [3]: 0.013 ppm

Compound: COc1ccc2[nH]c(-c3ccc(OCCOCCOc4ccc(-c5nc6cc(OC)ccc6[nH]5)nc4)cn3)nc2c1 [AI-4-62]
Viability of bone marrow mononuclear cells [5]: no effect on the viability | Effect on RS4;11 cells [6]: little to no effect | Effect on Jurkat cells [7]: little to no effect | Viability of inv(16) patient sample [8]: substantial effect | Luciferase activity [9]: dose-dependent increase in luciferase activity | CDKN1a gene expression [10]: dose-dependent substantial increase | inhibition at 10 µM ([11]; Homo sapiens, ME-1, 10 μM): 100% | Potency of dimer relative to the corresponding monomer on ME-1 cells ([11]; MTT, FIG. 7): ~15 fold | Effect on Kasumi-1 cells [12]: little to no effect | Effect on normal bone marrow mononuclear cells [13]: no effect | Cell death of leukemia initiating cells [14]: 80%

Compound: COc1ccc2[nH]c(-c3cccc(C)n3)nc2c1 [LD-2-89]
Δ333 [4]: Δ333 = 17%

Compound: COc1ccc2[nH]c(-c3ncccc3OC)nc2c1 [AI-10-53]
NMR with CBFβ + 250 uM compound, CSP G 112 [3]: 0.028 ppm | NMR with CBFβ + 250 uM compound, CSP K 98 [3]: 0.02 ppm
